Experimental data published in patent US8293680B2, “Fungicidal mixtures of triticonazole and difenoconazole” (BASF SE, priority 2007, dated 2012).
Like-named read-outs stand apart in the source and are kept apart here.

Legend:
[1] = tested on: Botrytis cinerea; assay: Activity against the grey mold Botrytis cinerea in the microtiterplate test (Botrci); type: cell-based; conditions: solo, MTP, 405 nm, 7 days after inoculation
[2] = tested on: Pyricularia oryzae; type: cell-based; conditions: Pyrior, solo, MTP, 405 nm, 7 days after inoculation

## CC1(C)CC/C(=C\c2ccc(Cl)cc2)C1(O)Cn1cncn1 (racemic) [Triticonazol, (±) E-5-(4-chlorobenzylidene)-2,2-dimethyl-1-(1H-1,2,4-triazol-1-ylmethyl)cyclopentanol]
[1]; 1 ppm
  Observed efficacy: 55%
[2]; 4 ppm
  Observed efficacy: 35%

## CC1COC(Cn2cncn2)(c2ccc(Oc3ccc(Cl)cc3)cc2Cl)O1 (stereo not shown) [Difenoconazol, 1-[2-[4-(4-chlorophenoxy)-2-chlorophenyl]-4-methyl-1,3-dioxolan-2-ylmethyl]-1H-1,2,4-triazole]
[1]; 0.25 ppm
  Observed efficacy: 30%
[2]; 1 ppm
  Observed efficacy: 15%
